Measurements from US10407455B2, “Phillygenin glucuronic acid derivative as well as preparation method and application thereof” (priority 2015, dated 2019).
Where “and” joins values, the source holds several entries; their conditions need not be identical. Equal entries are not always repeated. Where two headings read alike, the source gives them in different places. Marks after values point to notes of the source that are not given here.

Experiments:
[1] = system: Parainfluenza virus; assay: Influences of drugs on virus-induced CPE (antiviral effective rate, MTT), parainfluenza virus; assay type: cell-based; conditions: Vero cells, 100TCID50, drug at nearly the maximum non-cytotoxic concentration
[2] = system: adenovirus (AdV); assay: Influences of drugs on virus-induced CPE (antiviral effective rate, MTT), ADV; assay type: cell-based; conditions: Vero cells, 100TCID50, drug at nearly the maximum non-cytotoxic concentration
[3] = system: Coxsackie virus A16 (CoxA16); assay: Influences of drugs on virus-induced CPE (antiviral effective rate, MTT), CoxA16; assay type: cell-based; conditions: CoxA16, Vero cells, 100TCID50, drug at nearly the maximum non-cytotoxic concentration
[4] = system: Influenza virus; assay: Influences of drugs on virus-induced CPE (antiviral effective rate, MTT), influenza virus; assay type: cell-based
[5] = system: herpes simplex virus I (HSV-I); assay: Influences of drugs on virus-induced CPE (antiviral effective rate, MTT), HSV-I; assay type: cell-based; conditions: Vero cells, 100TCID50, drug at nearly the maximum non-cytotoxic concentration
[6] = system: Vero cells; conditions: 72 hours, MTT, Probit regression
Description: Performing subculture on Vero cells for 1-2 days to form sheets and have clear boundaries, performing trypsin digestion when stereoscopic impression and diopter are high, completely absorbing digestive juice when needle tip shaped holes occur on cells surfaces, blowing away the cells with milliliters of culture solution, counting, diluting to the quantity of 5×10^7 cells/L with the culture solution (DMEM containing 10% fetal calf serum), inoculating in a 96-well culture plate, and enabling the cells to grow to a single layer.
Cytotoxicity test: drugs are diluted with a maintenance solution (DMEM containing 2% fetal calf serum) according to concentrations shown in Table 1-1, and are used for cytotoxicity determination.

[7] = system: influenza virus; assay type: in vivo, Kunming mice; conditions: for inhibitory effect on the virus and the mouse virus pneumonia caused by it (in words): in vivo; for Lung index (X ± S) / Lung index inhibition rate (%): mice infected with influenza virus, 5 days, n = 3
[8] = system: parainfluenza virus; assay type: in vivo, Kunming mice
[9] = system: Coxsackie virus B3 (CVB3); assay: Influences of drugs on virus-induced CPE (antiviral effective rate, MTT), CVB3; assay type: cell-based; conditions: CVB3, Vero cells, 100TCID50, drug at nearly the maximum non-cytotoxic concentration
[10] = system: enterovirus EV71; assay: Influences of drugs on virus-induced CPE (antiviral effective rate, MTT), EV71; assay type: cell-based; conditions: EV71, Vero cells, 100TCID50, drug at nearly the maximum non-cytotoxic concentration
[11] = system: respiratory syncytial virus (RSV); assay: Influences of drugs on virus-induced CPE (antiviral effective rate, MTT), RSV; assay type: cell-based; conditions: Vero cells, 100TCID50, drug at nearly the maximum non-cytotoxic concentration
[12] = system: influenza virus; assay type: in vivo, Kunming mice; conditions: lung suspension, mice infected with influenza virus, 5 days, n = 3
[13] = system: parainfluenza virus; assay type: in vivo, Kunming mice; conditions: lung suspension, mice infected with parainfluenza virus, 5 days, n = 3
[14] = Influenza virus, Vero cells, 100TCID50, drug at nearly the maximum non-cytotoxic concentration
[15] = High-dose group 10.0 mg/kg/d intragastric
[16] = Low-dose group 2.25 mg/kg/d intragastric
[17] = Medium-dose group 5.0 mg/kg/d intragastric
[18] = mice infected with parainfluenza virus, 13.0 mg/kg/d (Compound I: High-dose group) intragastric, 5 days, n = 3

With `COc1cc(C2OCC3C(c4ccc5c(c4)OCO5)OCC23)ccc1OC1OC(C(=O)O)C(O)C(O)C1O` [Compound III, 33,34-Methylenedioxy phillygenin-8-O-β-D-glucuronide] the “antiviral effective rate (ER %)” value [1] was 92.22** %, the “antiviral effective rate (ER %)” value [2] was 22.17* % and the “antiviral effective rate (ER %)” value [3] was 100.00** %. The “antiviral effective rate (ER %)” value [4, 14] was 91.35** %, the “antiviral effective rate (ER %)” value [5] was 96.06** % and the “Maximum non-cytotoxic concentration (TC0)” value [6] was 0.0906 g/L. For the same molecule, the “Semi-cytotoxic concentration (TC50)” value [6] was 435 µg/mL, the “inhibitory effect on the virus and the mouse virus pneumonia caused by it (in words)” value (“inhibitory effect” below) [7] was “obvious inhibitory effects” and the “inhibitory effect” value ([8]; mouse, in vivo) was “obvious inhibitory effects”. The “antiviral effective rate (ER %)” value [9] was 9.63%, the “antiviral effective rate (ER %)” value [10] was 51.64% and the “antiviral effective rate (ER %)” value [11] was 86.18** %.
For `COc1ccc(C2OCC3C(c4ccc(OC5OC(C(=O)O)C(O)C(O)C5O)c(O)c4)OCC23)cc1OC` (stereo not shown) [Compound II], the “antiviral effective rate (ER %)” value [1] was 90.13** %, the “antiviral effective rate (ER %)” value [2] was 20.46* % and the “antiviral effective rate (ER %)” value [3] was 99.25** %. The “antiviral effective rate (ER %)” value [4, 14] was 92.74** %, the “antiviral effective rate (ER %)” value [5] was 93.35** % and the “Maximum non-cytotoxic concentration (TC0)” value [6] was 0.103 g/L. The “Semi-cytotoxic concentration (TC50)” value [6] was 412 µg/mL, the “inhibitory effect” value [7] was “obvious inhibitory effects” and the “inhibitory effect” value ([8]; mouse, in vivo) was “obvious inhibitory effects”. The “antiviral effective rate (ER %)” value [9] was 11.18%, the “antiviral effective rate (ER %)” value [10] was 54.32% and the “antiviral effective rate (ER %)” value [11] was 81.14** %.
`COc1cc(C2OCC3C(c4ccc(OC5OC(C(=O)O)C(O)C(O)C5O)c(OC)c4)OCC23)ccc1O` (stereo not shown) [Compound I] was tested, and the “Hemagglutination titer (InX)” value [12, 15] was 19.24 ± 0.513, the “Inhibition rate (%) of hemagglutination titer” value [12, 15] was 40.28% and the “Hemagglutination titer (InX)” value [12, 16] was 22.16 ± 1.270. The “Inhibition rate (%) of hemagglutination titer” value [12, 16] was 31.26%, the “Hemagglutination titer (InX)” value [12, 17] was 20.37 ± 0.285 and the “Inhibition rate (%) of hemagglutination titer” value [12, 17] was 36.32%. For the same molecule, the “antiviral effective rate (ER %)” value [1] was 96.24** %, the “antiviral effective rate (ER %)” value [2] was 21.26* % and the “antiviral effective rate (ER %)” value [3] was 100.00** %. For the same molecule, the “antiviral effective rate (ER %)” value [4, 14] was 95.81** %, the “antiviral effective rate (ER %)” value [5] was 91.23** % and the “Hemagglutination titer (InX)” value [13, 15] was 19.68 ± 0.638. For the same molecule, the “Inhibition rate (%) of hemagglutination titer” value [13, 15] was 38.36%, the “Hemagglutination titer (InX)” value [13, 16] was 21.62 ± 0.553 and the “Inhibition rate (%) of hemagglutination titer” value [13, 16] was 33.61%. For the same molecule, the “Hemagglutination titer (InX)” value [13, 17] was 20.47 ± 0.583, the “Inhibition rate (%) of hemagglutination titer” value [13, 17] was 36.32% and the “Maximum non-cytotoxic concentration (TC0)” value [6] was 0.106 g/L. The “Semi-cytotoxic concentration (TC50)” value [6] was 482 µg/mL, the “Lung index (X ± S)” value [7, 15] was 1.145 ± 0.037 and the “Lung index inhibition rate (%)” value [7, 15] was 22.82%. For the same molecule, the “Lung index (X ± S)” value [7, 16] was 1.225 ± 0.034, the “Lung index inhibition rate (%)” value [7, 16] was 17.85% and the “Lung index (X ± S)” value [7, 17] was 1.187 ± 0.028. For the same molecule, the “Lung index inhibition rate (%)” value [7, 17] was 20.03%, the “inhibitory effect” value [7] was “obvious inhibitory effects” and the “Lung index (X ± S)” value ([8]; mouse, in vivo) was 1.277 ± 0.054 and 1.318 ± 0.028. For the same molecule, the “Lung index inhibition rate (%)” value ([8]; mouse, in vivo) was 19.73% and 16.94%, the “inhibitory effect” value ([8]; mouse, in vivo) was “obvious inhibitory effects” and the “Lung index (X ± S)” value ([8]; mouse, in vivo, 13 mg/kg/day) was 1.239 ± 0.037. The “Lung index inhibition rate (%)” value ([8]; mouse, in vivo, 13 mg/kg/day) was 22.26%, the “antiviral effective rate (ER %)” value [9] was 10.16% and the “antiviral effective rate (ER %)” value [10] was 52.15%. For the same molecule, the “antiviral effective rate (ER %)” value [11] was 83.21** %.
`CCOC(=O)C1=C[C@@H](OC(CC)CC)[C@H](NC(C)=O)[C@@H](N)C1` [Oseltamivir phosphate, reference compound] was tested, and the “Hemagglutination titer (InX)” value ([12]; 19.5 mg/kg/d intragastric) was 20.47 ± 1.104, the “Inhibition rate (%) of hemagglutination titer” value ([12]; 19.5 mg/kg/d intragastric) was 35.26% and the “antiviral effective rate (ER %)” value [1] was 92.11** %. For the same molecule, the “antiviral effective rate (ER %)” value [2] was 12.12%, the “antiviral effective rate (ER %)” value [3] was 2.94% and the “antiviral effective rate (ER %)” value [4, 14] was 82.19** %. The “antiviral effective rate (ER %)” value [5] was 63.24** %, the “Hemagglutination titer (InX)” value ([13]; 19.5 mg/kg/d intragastric) was 23.24 ± 1.242 and the “Inhibition rate (%) of hemagglutination titer” value ([13]; 19.5 mg/kg/d intragastric) was 31.14%. The “Maximum non-cytotoxic concentration (TC0)” value [6] was 0.27 g/L, the “Semi-cytotoxic concentration (TC50)” value [6] was 834 µg/mL and the “Lung index (X ± S)” value ([7]; 19.5 mg/kg/d intragastric) was 1.176 ± 0.045. The “Lung index inhibition rate (%)” value ([7]; 19.5 mg/kg/d intragastric) was 19.76%, the “Lung index (X ± S)” value ([8]; mouse, in vivo, 19.5 mg/kg/day) was 1.241 ± 0.046 and the “Lung index inhibition rate (%)” value ([8]; mouse, in vivo, 19.5 mg/kg/day) was 21.83%. For the same molecule, the “antiviral effective rate (ER %)” value [9] was 1.53%, the “antiviral effective rate (ER %)” value [10] was 48.65% and the “antiviral effective rate (ER %)” value [11] was 39.22%.
`COc1cc([C@H]2OC[C@H]3[C@@H]2CO[C@H]3c2ccc(OC)c(OC)c2)ccc1O` [Phillygenin] was tested, and the “Hemagglutination titer (InX)” value ([12]; 13.0 mg/kg/d intragastric) was 21.15 ± 1.024, the “Inhibition rate (%) of hemagglutination titer” value ([12]; 13.0 mg/kg/d intragastric) was 29.15% and the “antiviral effective rate (ER %)” value [1] was 94.06** %. The “antiviral effective rate (ER %)” value [2] was 14.25* %, the “antiviral effective rate (ER %)” value [3] was 97.03** % and the “antiviral effective rate (ER %)” value [4, 14] was 88.17** %. The “antiviral effective rate (ER %)” value [5] was 85.36** %, the “Hemagglutination titer (InX)” value ([13]; 13.0 mg/kg/d intragastric) was 23.63 ± 1.156 and the “Inhibition rate (%) of hemagglutination titer” value ([13]; 13.0 mg/kg/d intragastric) was 27.75%. For the same molecule, the “Maximum non-cytotoxic concentration (TC0)” value [6] was 0.012 g/L, the “Semi-cytotoxic concentration (TC50)” value [6] was 293 µg/mL and the “Lung index (X ± S)” value ([7]; 13.0 mg/kg/d intragastric) was 1.208 ± 0.025. The “Lung index inhibition rate (%)” value ([7]; 13.0 mg/kg/d intragastric) was 11.67%, the “Lung index (X ± S)” value [8, 18] was 1.349 ± 0.046 and the “Lung index inhibition rate (%)” value [8, 18] was 14.56%. For the same molecule, the “antiviral effective rate (ER %)” value [9] was 2.29%, the “antiviral effective rate (ER %)” value [10] was 32.27% and the “antiviral effective rate (ER %)” value [11] was 81.41** %.
With `NC(=O)c1ncn([C@@H]2O[C@H](CO)[C@@H](O)[C@H]2O)n1` [Ribavirin, reference compound] the “Hemagglutination titer (InX)” value ([12]; 58.5 mg/kg/d intragastric) was 21.87 ± 1.050, the “Inhibition rate (%) of hemagglutination titer” value ([12]; 58.5 mg/kg/d intragastric) was 32.35% and the “antiviral effective rate (ER %)” value [1] was 95.13** %. For the same molecule, the “antiviral effective rate (ER %)” value [2] was 0.47%, the “antiviral effective rate (ER %)” value [3] was 0.72% and the “antiviral effective rate (ER %)” value [4] was 56.44** %. The “antiviral effective rate (ER %)” value [5] was 64.65** %, the “Hemagglutination titer (InX)” value ([13]; 58.5 mg/kg/d intragastric) was 24.32 ± 1.123 and the “Inhibition rate (%) of hemagglutination titer” value ([13]; 58.5 mg/kg/d intragastric) was 23.25%. For the same molecule, the “antiviral effective rate (ER %)” value [9] was 12.14%, the “antiviral effective rate (ER %)” value [10] was 4.03** % and the “antiviral effective rate (ER %)” value [11] was 52.15* %.
